Experimental data as given in patent US12268694B2, “Combination pharmaceutical agents as RSV inhibitors” (Enanta Pharmaceuticals, Inc., priority 2017, dated 2025).

What was measured:
[1] = test system: genotype A, "Long" strain RSV; test: RSV-A assay: CPE protection in HEp-2 cells, ATPlite readout; assay type: cell-based, human respiratory syncytial virus; settings: human respiratory syncytial virus, HEp-2, read-out: Human RSV-A (“Long” strain) EC50
How it was run: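 HEp-2 cells (8,000/well) with 2-fold compound dilutions in duplicate, infected with Long-strain RSV at MOI 0.1 and incubated 5 days. Cell ATP measured by ATPlite luminescence to give EC50; uninfected parallel plate gives CC50.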

HEp-2 cells = test: Cytotoxicity in parallel to the RSV-A assay (no virus), ATPlite readout; assay type: cell-based, human
Experimental: Following extensive parameter testing, the final assay is run as follows: HEp-2 cells are seeded into the inner 60 wells of a 96-well plate at 8,000 cells per well in a volume of 50 μL using Growth Media (DMEM without phenol red, 1% L-Glut, 1% Penn/Strep, 1% nonessential amino acids, 10% heat-inactivated FBS). 2-fold serial dilutions of control and test compounds are added to the wells in duplicate in a total volume of 25 μL. Viral stock is then added to the wells at a multiplicity of infection (MOI) of 0.1 in a volume of 25 μL, bringing the total volume of each well to 100 μL. The MOI is calculated using the PFU/mL, or TCID50 if unavailable. Each 96-well plate has a control column of 6 wells with cells and virus but no compound (negative control, max CPE), a column with cells but no compound or virus (positive control, minimum CPE), and a column with no cells or virus or compound (background plate/reagent control). The control wells with cells but no virus are given an additional 25 μL of growth media containing an equal quantity of sucrose as those wells receiving the viral stock in order to keep consistent in media and volume conditions. The outer wells of the plate are filled with 125 μL of moat media (DMEM, 1% Penn/Strep) to act as a thermal and evaporative moat around the test wells. Following a 5-day incubation period, the plates are read using ATPlite (50 μL added per well), which quantifies the amount of ATP (a measure of cell health) present in each well. Assay plates are read using the Envision luminometer. In parallel, cytotoxicity is examined on an additional 96-well plate treated in an identical manner, but substituting the 25 μL of viral stock for 25 μL of growth media. […] EC50 ranges are as follows: A <0.4 μM; B 0.4-0.8 μM; C >0.8 μM and CC50 ranges are as follows: A >50 μM; B 10-50 μM; C <10 μM.

Structure (SMILES)	EC50 [1]	CC50 (HEp-2 cells)
O=C1Nc2ccccc2C(c2ccccc2)=NC1Nc1nnc(-c2ccc3ccccc3c2)o1 (stereo not shown) [Example 16]	400 to 800 nM	> 50000 nM
N#Cc1ccc(-c2nnc(NC3N=C(c4ccccc4)c4ccccc4NC3=O)o2)cc1 (stereo not shown) [Example 12]	400 to 800 nM	> 50000 nM
O=C1Nc2ccccc2C(c2ccccc2)=NC1Nc1nnc(-c2ccc(F)nc2)o1 (stereo not shown) [Example 53]	400 to 800 nM	> 50000 nM
O=C1Nc2ccccc2C(c2ccccc2)=NC1Nc1nnc(C2CCNCC2)o1 (stereo not shown) [Example 45]	> 800 nM	> 50000 nM
COc1cccc(-c2nnc(NC3N=C(c4ccccc4)c4ccccc4NC3=O)o2)c1 (stereo not shown) [Example 4]	> 800 nM	> 50000 nM
O=C1Nc2ccccc2C(c2ccccc2)=NC1Nc1nnc(-c2cscn2)o1 (stereo not shown) [Example 77]	400 to 800 nM	> 50000 nM
O=C1Nc2ccccc2C(c2ccccc2)=NC1Nc1nnc(-c2ccc(=O)[nH]c2)o1 (stereo not shown) [Example 39]	> 800 nM	> 50000 nM
O=C1Nc2ccccc2C(c2ccccc2)=NC1Nc1nnc(C2CCOCC2)o1 (stereo not shown) [Example 21]	> 800 nM	> 50000 nM
O=C1Nc2ccccc2C(c2ccccc2)=NC1Nc1nnc(-c2ncccn2)o1 (stereo not shown) [Example 59]	> 800 nM	> 50000 nM
O=C1Nc2ccccc2C(c2ccccc2)=NC1Nc1nnc(C2CC2)o1 (stereo not shown) [Example 5]	> 800 nM	> 50000 nM
CC(=O)N1CCC(c2nnc(NC3N=C(c4ccccc4)c4ccccc4NC3=O)o2)CC1 (stereo not shown) [Example 47]	> 800 nM	> 50000 nM
O=C1Nc2ccccc2C(c2ccccc2)=NC1Nc1nnc(-c2ccc(F)cn2)o1 (stereo not shown) [Example 23]	> 800 nM	> 50000 nM
O=C1Nc2ccccc2C(c2ccccc2)=NC1Nc1nnc(-c2ccncc2)o1 (stereo not shown) [Example 61]	400 to 800 nM	> 50000 nM
O=C1Nc2ccccc2C(c2ccccc2)=NC1Nc1nnc(-c2ccc(C(F)(F)F)cn2)o1 (stereo not shown) [Example 25]	> 800 nM	> 50000 nM
O=C1Nc2ccccc2C(c2ccccc2)=NC1Nc1nnc(-c2ccccc2F)o1 (stereo not shown) [Example 6]	> 800 nM	> 50000 nM
N#Cc1ccc(-c2nnc(NC3N=C(c4ccccc4)c4ccccc4NC3=O)s2)cc1 (stereo not shown) [Example 82]	400 to 800 nM	> 50000 nM
O=C1Nc2ccccc2C(c2ccccc2)=NC1Nc1nnc(-c2ccc(Cl)o2)o1 (stereo not shown) [Example 20]	> 800 nM	> 50000 nM
O=C1Nc2ccccc2C(c2ccccc2)=NC1Nc1nnc([C@@H]2COCCN2)o1 (stereo partly shown) [Example 48]	> 800 nM	> 50000 nM
Cn1nccc1-c1nnc(NC2N=C(c3ccccc3)c3ccccc3NC2=O)o1 (stereo not shown) [Example 65]	> 800 nM	> 50000 nM
CC(C)Oc1cccc(-c2nnc(NC3N=C(c4ccccc4)c4ccccc4NC3=O)o2)c1 (stereo not shown) [Example 15]	400 to 800 nM	> 50000 nM
O=C1Nc2ccccc2C(c2ccccc2)=NC1Nc1nnc(-c2cccc(C(F)(F)F)c2)o1 (stereo not shown) [Example 29]	> 800 nM	> 50000 nM
O=C1Nc2ccccc2C(c2ccccc2)=NC1Nc1cc(-c2ccccc2)ncn1 (stereo not shown) [Example 92]	> 800 nM	10000 to 50000 nM
N#Cc1cc(-c2nnc(NC3N=C(c4ccccc4)c4ccccc4NC3=O)o2)ccn1 (stereo not shown) [Example 38]	> 800 nM	> 50000 nM
Cc1ccc(-c2nnc(NC3N=C(c4ccccc4)c4ccccc4NC3=O)o2)s1 (stereo not shown) [Example 19]	> 800 nM	> 50000 nM
COc1ccc(-c2nnc(NC3N=C(c4ccccc4)c4ccccc4NC3=O)o2)nc1 (stereo not shown) [Example 51]	400 to 800 nM	> 50000 nM
N#Cc1ccc(-c2nnc(NC3N=C(c4ccccc4)c4ccccc4NC3=O)o2)cc1F (stereo not shown) [Example 33]	> 800 nM	> 50000 nM

Structure (SMILES)	EC50 [1]	CC50 (HEp-2 cells)
COc1ccnc(-c2nnc(NC3N=C(c4ccccc4)c4ccccc4NC3=O)o2)c1 (stereo not shown) [Example 57]	> 800 nM	> 50000 nM
O=C1Nc2ccccc2C(c2ccccc2)=NC1Nc1nc(N2CCOCC2)ns1 (stereo not shown) [Example 88]	> 800 nM	10000 to 50000 nM
Cc1nnc(NC2N=C(c3ccccc3)c3ccccc3NC2=O)o1 (stereo not shown) [Example 18]	> 800 nM	> 50000 nM
O=C1Nc2ccccc2C(c2ccccc2)=NC1Nc1nc(-c2ccccc2)ns1 (stereo not shown) [Example 87]	> 800 nM	10000 to 50000 nM
O=C1Nc2ccccc2C(c2ccccc2)=NC1Nc1nc(-c2ccccc2)cs1 (stereo not shown) [Example 90]	> 800 nM	< 10000 nM
O=C1Nc2ccccc2C(c2ccccc2)=NC1Nc1nnc(Cc2ccccc2)o1 (stereo not shown) [Example 22]	> 800 nM	> 50000 nM
NS(=O)(=O)c1ccc(-c2nnc(NC3N=C(c4ccccc4)c4ccccc4NC3=O)o2)cc1 (stereo not shown) [Example 31]	400 to 800 nM	> 50000 nM
O=C1Nc2ccccc2C(c2ccccc2)=NC1Nc1nnc([C@H]2COCCN2)o1 (stereo partly shown) [Example 49]	> 800 nM	> 50000 nM
O=C1Nc2ccccc2C(c2ccccc2)=NC1Nc1nnc(-c2cc3cccnc3s2)o1 (stereo not shown) [Example 43]	> 800 nM	> 50000 nM
O=C1Nc2ccccc2C(c2ccccc2)=NC1Nc1nnc(-c2cccnc2)o1 (stereo not shown) [Example 37]	> 800 nM	> 50000 nM
CN1CCC(c2nnc(NC3N=C(c4ccccc4)c4ccccc4NC3=O)o2)CC1 (stereo not shown) [Example 46]	> 800 nM	> 50000 nM
O=C1Nc2ccccc2C(c2ccccc2)=NC1Nc1nc2c(F)cccc2o1 (stereo not shown) [Example 105]	> 800 nM	> 50000 nM
O=C1Nc2ccccc2C(c2ccccc2)=NC1Nc1nnc(-c2ccc(C(F)(F)F)cc2)o1 (stereo not shown) [Example 28]	> 800 nM	> 50000 nM
O=C1Nc2ccccc2C(c2ccccc2)=NC1Nc1nnc(-c2ccccc2)[nH]1 (stereo not shown) [Example 86]	> 800 nM	> 50000 nM
COCCOc1cccc(-c2nnc(NC3N=C(c4ccccc4)c4ccccc4NC3=O)o2)c1 (stereo not shown) [Example 1]	> 800 nM	> 50000 nM
O=C1Nc2ccccc2C(c2ccccc2)=NC1Nc1nnc(-c2ccccn2)o1 (stereo not shown) [Example 11]	400 to 800 nM	> 50000 nM
Cn1cc(-c2nnc(NC3N=C(c4ccccc4)c4ccccc4NC3=O)o2)cn1 (stereo not shown) [Example 66]	400 to 800 nM	> 50000 nM
O=C1Nc2ccccc2C(c2ccccc2)=NC1Nc1nnco1 (stereo not shown) [Example 79]	> 800 nM	> 50000 nM
O=C1Nc2ccccc2C(c2ccccc2)=NC1Nc1nnc(-c2ccc(F)cc2)s1 (stereo not shown) [Example 80]	> 800 nM	> 50000 nM
COCc1ccc(-c2nnc(NC3N=C(c4ccccc4)c4ccccc4NC3=O)o2)o1 (stereo not shown) [Example 72]	> 800 nM	> 50000 nM
O=C1Nc2ccccc2C(c2ccccc2)=NC1Nc1nc2cc(F)ccc2o1 (stereo not shown) [Example 104]	> 800 nM	10000 to 50000 nM
COc1ccccc1-c1nnc(NC2N=C(c3ccccc3)c3ccccc3NC2=O)o1 (stereo not shown) [Example 9]	> 800 nM	> 50000 nM
O=C1Nc2ccccc2C(c2ccccc2)=NC1Nc1nnc(-c2cnccn2)o1 (stereo not shown) [Example 58]	> 800 nM	> 50000 nM
Cn1cc(N2CCOCC2)c(-c2nnc(N[C@H]3N=C(c4ccccc4)c4ccccc4NC3=O)o2)n1 [Example 164]	< 400 nM	–
COC1CCN(c2ncccc2-c2nnc(NC3N=C(c4ccccc4)c4ccccc4NC3=O)o2)CC1 (stereo not shown) [Example 254]	> 800 nM	–
